Converted amounts (≈) assume the structure as drawn. Counter-ions that a name gives are not always drawn. Like-named read-outs stand apart in the source and are kept apart here.
Columns and labels:
M. iowae 695 = assay: MIC (MHK) against mycoplasmas, microscopic reading; format: cell-based; conditions: incubation 5 to 7 days, read-out: MHK-Werte gegen Mycoplasmen
[1] = system: E.-coli-Stammes 6200 Serovar 078; assay: In vivo antibacterial efficacy in E. coli infected chicks (mortality); set-up: species or system Hühner-Küken; conditions: Escherichia coli; chicks infected intrathoracally, oral dose immediately after infection, mortality 48 h after infection
Text: Die antibakterielle Wirksamkeit der erfindungsgemäßen Verbindung in-vivo wurde folgendermaßen bestimmt. Zwei bis […] (Lohmann-Hybriden, Fa. Lohmann, Cuxhaven) wurden mit 5 x 10^6 KBE/ml des E.-coli-Stammes 6200 Serovar 078 (Prof. Hinz, Hannover) intrathorakal infiziert. Unmittelbar nach der Infektion erhielten jeweils Gruppen von 10 bis 20 Küken den Wirkstoff oral appliziert. Ausgetestet wurden 6 Verdünnungen einer geometrischen Verdünnungsreihe. Die Auswertung erfolgte durch […] 48 Stunden nach der Infektion. Die Wirksamkeit der betreffenden Verbindung wird als ED90 in mg/kg angegeben.

Salmonella spp. = assay: MIC (MHK), agar serial dilution on Iso-Sensitest agar; format: cell-based; conditions: for MIC: 20 h, Salmonella spp. S 9656, read-out: MHK-Werte; for MHK-Werte: Salmonella spp. S 9657
Text: (§1) Die minimalen Hemmkonzentrationen (MHK) der erfindungsgemäßen Verbindungen wurden per Reihenverdünnungsverfahren auf Iso-Sensitest Agar (Oxoid) bestimmt. Für jede Prüfsubstanz wurde eine Reihe von Agarplatten hergestellt, die bei jeweils doppelter Verdünnung abfallende Konzentrationen des Wirkstoffs enthielten. Die Agarplatten wurden mit einem Multipoint-Inokulator (Denley) beimpft. Zum Beimpfen wurden Übernachtkulturen der Erreger verwandt, die zuvor so verdünnt wurden, daß jeder Impfpunkt ca. 10^4 koloniebildende Partikel enthielt. Die beimpften Agarplatten wurden bei 37°C bebrütet, und das Keimwachstum wurde nach ca. 20 Stunden abgelesen. Der MHK-Wert (µg/ml) gibt die niedrigste Wirkstoffkonzentration an, bei der mit bloßem Auge kein Wachstum zu erkennen war. Die Erfassung der MHK-Werte für Mycoplasmen erfolgte mikroskopisch nach einer Inkubationszeit von 5 bis 7 Tagen.

E. coli = assay: as above; format: cell-based; conditions: for MIC: Escherichia coli, 20 h, read-out: MHK-Werte
Text: as §1

M. agalactiae PG 2 = assay: MIC (MHK) against mycoplasmas, microscopic reading; format: cell-based; conditions: Mycoplasmopsis agalactiae, PG2, incubation 5 to 7 days, read-out: MHK-Werte gegen Mycoplasmen
M. gallisepticum PG 31 = assay: MIC (MHK) against mycoplasmas, microscopic reading; format: cell-based; conditions: Mycoplasmoides gallisepticum, PG31, incubation 5 to 7 days, read-out: MHK-Werte gegen Mycoplasmen
M. bovirhinis PG 43 = assay: MIC (MHK) against mycoplasmas, microscopic reading; format: cell-based; conditions: incubation 5 to 7 days, read-out: MHK-Werte gegen Mycoplasmen
Staph. spp. = assay: MIC (MHK), agar serial dilution on Iso-Sensitest agar; format: cell-based; conditions: for MIC: 20 h, read-out: MHK-Werte
S. suis = assay: as above; format: cell-based; conditions: Streptococcus suis, 20 h, read-out: MHK-Werte
B. bronchiseptica = assay: as above; format: cell-based; conditions: for MIC: Bordetella bronchiseptica, 20 h, B. bronchiseptica B 9601, read-out: MHK-Werte
S. agalactiae = assay: as above; format: cell-based
Bordetella = assay: as above; format: cell-based; conditions: Bordetella 9213 GE; for MIC: 20 h, read-out: MHK-Werte
Pseudomonas spp. = assay: as above; format: cell-based; conditions: 20 h; Pseudomonas spp. P 9510; read-out: MHK-Werte
M. bovis "Donetta" = assay: microbe, parasite or virus in culture; format: cell-based; conditions: read-out: MHK-Werte gegen Mycoplasmen

SMILES	MIC (M. iowae 695) [mg/L]	ED90 [1] [mg/kg]	MIC (Salmonella spp.) [mg/L]	MHK-Werte (Salmonella spp.)	MIC (E. coli; E. coli 21 Bui) [mg/L]	MIC (E. coli; E. coli 3614 GE) [mg/L]	MIC (E. coli; E. coli 9430 LH) [mg/L]	MIC (E. coli; E. coli Ec 9675) [mg/L]	MIC (E. coli; E. coli G 293 LH) [mg/L]	MIC (M. agalactiae PG 2) [mg/L]	MIC (M. gallisepticum PG 31) [mg/L]	MIC (M. bovirhinis PG 43) [mg/L]	MIC (Staph. spp.; Staph. spp. 2706) [mg/L]	MIC (Staph. spp.; Staph. spp. 3781 GE) [mg/L]	MIC (Staph. spp.; Staph. spp. B 5520 TGD) [mg/L]	MIC (Staph. spp.; Staph. spp. G 600 LH) [mg/L]	MHK-Werte (B. bronchiseptica; B. bronchiseptica B 9610)	MHK-Werte (B. bronchiseptica; B. bronchiseptica B 9613)	MHK-Werte (B. bronchiseptica; B. bronchiseptica B 9618)	MIC (B. bronchiseptica) [mg/L]	further results
C=CC1CN(c2c(F)cc3c(=O)c(C(=O)O)cn(C4CC4)c3c2Cl)CCN1 (centres unmarked) [Bsp. 1, 8-Chlor-1-cyclopropyl-6-fluor-1,4-dihydro-4-oxo-7-(3-vinyl-1,4-piperazin-1-yl)-3-chinolincarbonsäure]	0.03 (≈ 0.0766 µM)	1.25	0.5 (≈ 1.28 µM)	0,5 µl/ml	8 (≈ 20.4 µM)	4 (≈ 10.2 µM)	16 (≈ 40.8 µM)	1 (≈ 2.55 µM)	8 (≈ 20.4 µM)	0.06 (≈ 0.153 µM)	0.03 (≈ 0.0766 µM)	0.06 (≈ 0.153 µM)	0.06 (≈ 0.153 µM)	1 (≈ 2.55 µM)	1 (≈ 2.55 µM)	1 (≈ 2.55 µM)	0,25 µl/ml	0,25 µl/ml	0,25 µl/ml	0.25 (≈ 0.638 µM)	MIC (S. suis; S. suis Scc 9588): 0.06 mg/L (≈ 0.153 µM); MIC (S. suis; S. suis Scc 9591): 0.03 mg/L (≈ 0.0766 µM); MIC (S. suis; S. suis Scc 9592): 0.25 mg/L (≈ 0.638 µM); MIC (S. suis; S. suis Scc 9595): 0.03 mg/L (≈ 0.0766 µM); MIC (S. suis; S. suis Scc 9603): 0.03 mg/L (≈ 0.0766 µM); MHK-Werte (S. agalactiae; S. agalactiae Scc 9514): 0,5 µl/ml; MHK-Werte (S. agalactiae; S. agalactiae Scc 9515): 0,5 µl/ml; MHK-Werte (S. agalactiae; S. agalactiae Scc 9520): 0,5 µl/ml; MHK-Werte (S. agalactiae; S. agalactiae Scc 9524): 0,5 µl/ml; MIC (S. agalactiae; Streptococcus agalactiae, 20 h, S. agalactiae Scc 9513, read-out: MHK-Werte): 0.5 mg/L (≈ 1.28 µM); MIC (Bordetella): 8 mg/L (≈ 20.4 µM); MIC (Pseudomonas spp.): 0.5 mg/L (≈ 1.28 µM); MIC (M. bovis "Donetta"): 0.06 mg/L (≈ 0.153 µM)
C=CC1CN(c2c(F)c(N)c3c(=O)c(C(=O)O)cn(C4CC4)c3c2F)CCN1 (centres unmarked) [Bsp. 4, 5-Amino-1-cyclopropyl-6,8-difluor-1,4-dihydro-4-oxo-7-(3-vinyl-1,4-piperazin-1-yl)-chinolincarbonsäure]	0.06 (≈ 0.154 µM)		0.5 (≈ 1.28 µM)	0,5 µl/ml	16 (≈ 41 µM)	16 (≈ 41 µM)	64 (≈ 164 µM)	0.5 (≈ 1.28 µM)	32 (≈ 82 µM)	0.03 (≈ 0.0768 µM)	0.03 (≈ 0.0768 µM)	0.25 (≈ 0.64 µM)		4 (≈ 10.2 µM)	4 (≈ 10.2 µM)	4 (≈ 10.2 µM)	0,25 µl/ml	0,25 µl/ml	0,25 µl/ml	0.25 (≈ 0.64 µM)	MIC (Staph. spp.; Staph. spp. ST 9640): 0.06 mg/L (≈ 0.154 µM)
C=CC1CN(c2cc3c(cc2F)c(=O)c(C(=O)O)cn3C2CC2)CCN1 (centres unmarked) [Bsp. 102 aus EP-A 230 053, 1-Cyclopropyl-6-fluor-1,4-dihydro-4-oxo-7-(3-vinyl-1,4-piperazin-1-yl)-3-chinoloncarbonsäure, reference compound]		5 to 10																			
C=CC1CN(c2c(F)cc3c(=O)c(C(=O)O)cn(C4CC4)c3c2Cl)CCN1/C=C/C(=O)OCC (centres unmarked) [Bsp. 3, 8-Chlor-1-cyclopropyl-7-[4-(2-ethoxycarbonyl-vinyl)-3-vinyl-1,4-piperazin-1-yl]-6-fluor-1,4-dihydro-4-oxo-3-chinolincarbonsäure]					8 (≈ 16.3 µM)	8 (≈ 16.3 µM)	32 (≈ 65.3 µM)		16 (≈ 32.7 µM)				0.25 (≈ 0.51 µM)	2 (≈ 4.08 µM)	2 (≈ 4.08 µM)	2 (≈ 4.08 µM)					MIC (Bordetella): 16 mg/L (≈ 32.7 µM)
C=CC1CN(c2c(F)cc3c(=O)c(C(=O)O)cn(C4CC4)c3c2Cl)CCN1 (centres unmarked) [Bsp. 2, 8-Chlor-1-cyclopropyl-6-fluor-1,4-dihydro-4-oxo-7-(3-vinyl-1,4-piperazin-1-yl)-3-chinolincarbonsäure-Hydrochlorid]																					MHK-Werte (E. coli; E. coli 21 Bui): 4 µl/ml; MHK-Werte (E. coli; E. coli 3614 GE): 4 µl/ml; MHK-Werte (E. coli; E. coli 9430 LH): 16 µl/ml; MHK-Werte (E. coli; E. coli G 293 LH): 4 µl/ml; MHK-Werte (Staph. spp.; Staph. spp. 3781 GE): 1 µl/ml; MHK-Werte (Bordetella): 8 µl/ml
